Experiment [1] deals with T1, squalene synthesizing enzyme (Rattus norvegicus, UniProt Q02769).
T1 construct: The liver was excised from a male Spraugue-Dawly rat; from tissue; host or cells: liver microsome fraction of male Sprague-Dawley rat (8 to 9 weeks)
T1 sequence (Q02769 1-416): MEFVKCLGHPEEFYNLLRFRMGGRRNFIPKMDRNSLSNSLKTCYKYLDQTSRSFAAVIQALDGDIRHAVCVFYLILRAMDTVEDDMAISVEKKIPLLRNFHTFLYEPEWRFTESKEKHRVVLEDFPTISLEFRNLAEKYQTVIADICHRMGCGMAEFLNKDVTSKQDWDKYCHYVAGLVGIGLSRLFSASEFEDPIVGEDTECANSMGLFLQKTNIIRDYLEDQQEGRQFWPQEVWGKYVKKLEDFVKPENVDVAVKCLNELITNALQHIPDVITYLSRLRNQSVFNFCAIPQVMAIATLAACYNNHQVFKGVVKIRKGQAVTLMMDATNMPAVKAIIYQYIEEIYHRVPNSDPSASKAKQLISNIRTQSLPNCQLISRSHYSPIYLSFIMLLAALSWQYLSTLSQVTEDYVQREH
The experiment can be described thus: Measurement of squalene synthesizing enzyme inhibitive activity by using a rat liver microsome. It is filed as biochemical. The conditions noted are these: [3H]-farnesylpyrophosphoric acid. As for the experimental part:
Measurement of Squalene Synthesizing Enzyme Inhibitive Activity by Using a Rat Liver Microsome
(I) The reaction was run on a scale of 500 μ1. 200 µl of a solution containing 125 mM tris-hydrochloric acid (pH: 7.3), 2.5 mM magnesium chloride, 5 mM potassium fluoride and 10 mM reduction type nicotinamidoadenine dinucleotide phosphoric acid, 100 µl of the specimen solution with a 5-fold concentration, 100 µl of distilled water and 50 µl of 0.4 to 1 mg/ml rat liver microsome prepared by the following method were mixed.
(II) The above mixture was pre-incubated at 37° C. for 10 minutes and thereafter, 50 µl of 100 μM [^3H]-farnesylpyrophosphoric acid (30 mCi/mmol, NEN) was added to the mixture to start a reaction. The reaction was continued at 37° C. for 10 minutes. 1 ml of ethanol was added to the resulting mixture to terminate the reaction and then 1 ml of distilled water and 3 ml of petroleum ether were added to the reaction solution, which was then shaken for 30 minutes. The water phase was separated from the oil phase, the water phase was frozen at −70° C. in dry ice/methanol and the radiative activity of the organic phase was measured using a liquid scintillator. Or the organic phase was evaporated to dryness using nitrogen gas and the residue was dissolved as a marker in 25 µl of chloroform containing squalene, farnesol and cholesterol. This sample was spotted on a TCL plate (Merck) and developed using heptane for 15 to 20 minutes. A band of squalene was cut from the plate to measure the radiative activity by using a liquid scintillation counter. The data was expressed by a concentration (IC50) at which 50% of the radiative activity of a control group was inhibited.
Method of the Preparation of a Rat Liver Microsome
The following operations were all carried out on ice and the centrifugation was performed at 4° C. The liver was excised from a male Spraugue-Dawly rat (hereinafter referred to as SD rat) (8 to 9 weeks age) and perfused with 1.15% potassium chloride to remove the blood. Then, the liver was minced using a forceps and the minced liver was homogenized using a Teflon homogenizer. The resulting sample was centrifuged at 16000×g twice for 15 minutes. The supernatant was further centrifuged at 105000×g for 60 minutes. The obtained deposit was determined as a microsome fraction, which was then suspended in a 25 mM tris-hydrochloric acid solution. The concentration of protein was measured quantitatively by a Bradford method and the concentration of protein was adjusted to 20 mg/ml by using the same solution. The resulting solution was stored at […].
(Liver microsomes are vesicles of endoplasmic reticulum, rich in cytochrome P450 enzymes.)

Experiment [2] deals with cholesterol biosynthesis. The experiment can be described thus: Measurement of cholesterol biosynthesis inhibitive activity in a rat. It is filed as in vivo. As to conditions: male SD rat, oral, inhibition rate to control group; for inhibition in vivo at 3 mg/kg / Cholesterol biosynthesis inhibitive activity inhibition (%): dose 3 mg/kg. As for the experimental part: Measurement of Cholesterol Biosynthesis Inhibitive Activity in a Rat
(I) An SPF grade male SD rat (4 weeks age, SLC) was bred for more than one week in a day-night-reversal room and subjected to an experiment made in the daytime. The compound dissolved in a 2% Tween 80 solution was administered (5 ml/kg) to the rat using an oral sonde. After one hour, a [1-^14C]Acetic acid, sodium salt (1.67-2.22 GBq/mmol, 37 MBq/ml, NEN) prepared by diluting to 1.85 MBq/ml by using physiological saline was intraabdominally administered (300 μ1/animal). After one hour, the rat was anesthetized by diethyl ether to carry out exsanguination from the aorta abdominalis. The collected blood was centrifuged at 3000 rpm for 10 minutes to prepare blood plasma.
(II) 1 ml of 4N KOH and 1 ml of ethanol were added to 2 ml of the blood plasma, which was then incubated at 65° C. for one hour and there after, 3 ml of petroleum ether was added. The plasma was shaken for 30 minutes. After the water phase was separated from the organic phase by centrifugation, it was frozen at −80° C. and the radiative activity of the organic phase was measured using a liquid scintillation counter. Or the organic phase was evaporated to dryness using nitrogen gas and the residue was dissolved as a marker in 25 µl of chloroform containing squalene, farnesol and cholesterol. This sample was applied to a TCL plate (Merck) and developed using toluene and isopropyl ether (1:1) for 15 to 20 minutes. A band of cholesterol was cut from the plate to measure the radiative activity by using a liquid scintillation counter. The cholesterol biosynthesis inhibition activity was expressed by an inhibition rate (%) to a control group.

As to `OC1(C#Cc2cnc(-c3ccc4c(c3)OCO4)cc2Cc2ccccc2)CN2CCC1CC2` (stereo not drawn) [Example 1, 3-[4-Benzyl-2-(3,4-methylenedioxyphenyl)-5-pyridyl]ethynyl-3-quinuclidinol], it took 10 nM to reach half-maximal inhibition in experiment [1] (IC50).

In the case of `O[C@]1(C#Cc2cc(Cl)c(N3CCC4(C3)OCCO4)nc2Cc2ccccc2)CN2CCC1CC2` [Example 119, (3R)-3-[2-Benzyl-5-chloro-6-(3,3-ethylenedioxypyrrolidine-1-yl)-3-pyridyl]ethynyl-3-quinuclidinol], the IC50 (commonly the point on the concentration scale where inhibition reaches its midpoint) in experiment [1] was determined as 3.9 nM.

In turn, `CO[C@@H]1CCN(c2ccc(C#C[C@@]3(O)CN4CCC3CC4)c(Cc3ccccc3)n2)C1=O` [Example 144, (3R)-3-[2-Benzyl-6-[(3R)-3-methoxy-2-pyrrolidinone-1-yl]-3-pyridyl]ethynyl-3-quinuclidinol] registered an IC50 in experiment [1] of 2.6 nM.

Turning to `COCCCOc1ccc(C#CC2(O)CN3CCC2CC3)c(Cc2ccccc2)n1` (stereo not drawn) [Example 13, 3-[2-Benzyl-6-(3-methoxypropyloxy)-3-pyridyl]ethynyl-3-quinuclidinol], in experiment [2] (2 h), the inhibition in vivo (usually the change of the read-out against control, counted positive when it falls) at 3 mg/kg was 87%.

`COC1CCN(c2ccc(C#CC3(O)CN4CCC3CC4)c(Cc3ccccc3)n2)CC1` (stereo not drawn) [Example 9, 3-[2-Benzyl-6-(4-methoxypiperidino)-3-pyridyl)ethynyl-3-quinuclidinol] returned an IC50 in experiment [1] of 34 nM.

As to `OC1(C#Cc2cnc(-c3ccccn3)cc2Cc2ccccc2)CN2CCC1CC2` (stereo not drawn) [Example 2, 3-[4-Benzyl-2-(2-pyridyl)-5-pyridyl]ethynyl-3-quinuclidinol], inhibition in experiment [1] was half-maximal at 20 nM (IC50).

Consider `CO[C@@H]1CN(c2ccc(C#C[C@@]3(O)CN4CCC3CC4)c(Cc3ccccc3)n2)C[C@H]1OC` [Example 104, (3R)-3-[2-Benzyl-6-[(3R,4R)-3,4-dimethoxypyrrolidine-1-yl)-3-pyridyl]ethynyl-3-quinuclidinol], for which the midpoint of inhibition in experiment [1], the IC50, lay at 6.7 nM. The compound also came in with an inhibition in vivo at 2 mg/kg in experiment [2] (2 h, dose 2 mg/kg) of 88%.

Consider `COCCCNc1ccc(C#CC2(O)CN3CCC2CC3)c(Cc2ccccc2)n1` (stereo not drawn) [Example 11, 3-[2-Benzyl-6-(3-methoxypropylamino)-3-pyridyl)ethynyl-3-quinuclidinol], for which the inhibition in vivo at 3 mg/kg in experiment [2] (2 h) amounted to 72%.

With `OC1(C#Cc2cnc(-c3ccc4c(c3)OCO4)nc2Cc2ccccc2)CN2CCC1CC2` (stereo not drawn) [Example 19, 3-[4-Benzyl-2-(3,4-methylenedioxyphenyl)-5-pyrimidyl]ethynyl-3-quinuclidinol], inhibition in experiment [1] was half-maximal at 10 nM (IC50).

In the case of `O[C@]1(C#Cc2cnc(-c3ccc4c(c3)OCO4)cc2Cc2ccccc2)CN2CCC1CC2` [Example 180, (3R)-3-[4-Benzyl-2-(3,4-methylenedioxyphenyl)-5-pyridyl]ethynyl-3-quinuclidinol], the IC50 in experiment [1] came out at 6.3 nM.

In the case of `O=C1[C@H](O)CCN1c1ccc(C#C[C@@]2(O)CN3CCC2CC3)c(Cc2ccccc2)n1` [Example 142, (3R)-3-[2-Benzyl-6-[(3R)-3-hydroxy-2-pyrrolidinone-1-yl]-3-pyridyl]ethynyl-3-quinuclidinol], half-maximal inhibition in experiment [1] (IC50) was put at 5 nM. Moreover, at 3 mg/kg the inhibition in vivo in experiment [2] (2 h) was 82%.

As for `COCCOc1ccc(C#C[C@@]2(O)CN3CCC2CC3)c(Cc2ccccc2)n1` [Example 147, (3R)-3-[2-Benzyl-6-(2-methoxyethyl)oxy-3-pyridyl]ethynyl-3-quinuclidinol], the inhibition in vivo at 3 mg/kg in experiment [2] (2 h) came out at 87%.

As to `COCCOc1ccc(C#CC2(O)CN3CCC2CC3)c(Cc2ccccc2)n1` (stereo not drawn) [Example 12, 3-[2-Benzyl-6-(2-methoxyethyloxy)-3-pyridyl)ethynyl-3-quinuclidinol], the inhibition in vivo at 3 mg/kg in experiment [2] (2 h) was found to be 78%.

`COC(=O)CCC(=O)OCCCOc1ccc(C#CC2(O)CN3CCC2CC3)c(Cc2ccccc2)n1` (stereo not drawn) [Example 168, 3-[2-Benzyl-6-[3-(3-methoxycarbonylpropanoyloxy)propyl]oxy-3-pyridyl]ethynyl-3-quinclidinol]: the “Cholesterol biosynthesis inhibitive activity inhibition (%)” value in experiment [2] amounted to 89%.

“3-[4-Benzyl-2-(3-pyridyl)-5-pyridyl]ethynyl-3-quinuclidinol [Example 18]”: in experiment [1], half-maximal inhibition (IC50) was put at 25 nM.

In turn, `CO[C@@H]1CN(c2ccc(C#C[C@@]3(O)CN4CCC3CC4)c(Cc3ccccc3)n2)C(=O)[C@@H]1OC` [Example 123, (3R)-3-[2-Benzyl-6-[(3R,4R)-3,4-dimethoxy-2-pyrrolidinone-1-yl]-3-pyridyl]ethynyl-3-quinuclidinol] came in with an inhibition in vivo at 3 mg/kg in experiment [2] (2 h) of 86%.

For `CO[C@@H]1CN(c2ccc(C#C[C@@]3(O)CN4CCC3CC4)c(Cc3ccccc3)n2)C[C@H]1O` [Example 10, (3R)-3-[2-Benzyl-6-[(3R,4R)-3-hydroxy-4-methoxypyrrolidine-1-yl]-3-pyridyl)ethynyl-3-quinuclidinol], in experiment [1], the IC50 was 2 nM.

On to `COCCOc1cc(Cc2ccccc2)c(C#CC2(O)CN3CCC2CC3)cn1` (stereo not drawn) [Example 6, 3-[4-Benzyl-2-(2-methoxyethoxy)-5-pyridyl]ethynyl-3-quinuclidinol], for which the inhibition in vivo at 3 mg/kg in experiment [2] (2 h) was determined as 73%.

`C[C@H](NC(=O)OC(C)(C)C)C(=O)OCCCOc1ccc(C#CC2(O)CN3CCC2CC3)c(Cc2ccccc2)n1` (stereo partly drawn) [Example 169, 3-[2-Benzyl-6-[3-[N-(tert-butoxycarbonyl)aranyloxy]propyl]oxy-3-pyridyl]ethynyl-3-quinuclidinol]: in experiment [2], the “Cholesterol biosynthesis inhibitive activity inhibition (%)” value is recorded as 92%.

Values taken from patent publication US6599917B1, “Quinuclidine compounds and drugs containing the same as the active ingredient” (priority 1999, dated 2003).
